Laboratory results reported in patent US20150368209A1, “4-Pyrimidinylamino-benzenesulfonamide derivatives and their use for the inhibition of polo-like kinase 1 (PLK1) for the treatment of cancer and their use for the treatment of bacterial infections” (VICHEM CHEMIE KUTATÓ KFT., priority 2013, published 2015).
Values after ≈ are worked out from the molar mass of the structure shown.

What was measured:
[1] = molecular target: T1, human PLK1 kinase domain (Homo sapiens, UniProt P53350); assay: In vitro PLK1 assay (IMAP fluorescence polarization kinase assay); type: biochemical; details: for IC50: 30 nM PLK1 kinase domain, 16 μM ATP (=Kmapp), 90 min at room temperature; for inhibition at 10 µM: at 10 uM compound
T1 construct: Each reaction consisted of 30 nM enzyme PLK1 kinase domain
Protocol: The activity of the compounds described in the present invention was determined using a commercially available IMAP Screening Express Assay Kit (Molecular devices).
This method measures the change in the fluorescent polarization of a fluorescently-labeled peptide due to the effect of human PLK1 kinase domain on it. PLK1 kinase assays were performed in low protein binding 384-well plates (Corning 3676). Test compounds were diluted in 100% DMSO to 5 mM stock concentration, the further dilutions were made in H2O or 100% DMSO to desirable concentrations.
Each reaction consisted of 30 nM enzyme PLK1 kinase domain, 400 nM 5TAMRA-RGSFNDTLDFD-NH2 (Genecust Europe), 16 μM ATP (=Kmapp, Sigma-Aldrich) and kinase buffer: 20 mM HEPES pH 7.5 (Sigma-Aldrich), 1 mM DTT (Sigma-Aldrich), 10 mM MgCl2 (Sigma-Aldrich), 0.01% Triton X-100 (Sigma-Aldrich).
For each reaction, 4 or 6 μl containing 5TAMRA-RGSFNDTLDFD-NH2, ATP and kinase buffer were combined with 2 μl diluted compound in H2O or 0.04 μl compound in 100% DMSO. The kinase reaction was started by the addition of 2 μl diluted enzyme. The reaction was allowed to run for 90 minutes at room temperature. The reaction was stopped by adding 15 μl IMAP beads (1:1200 beads in progressive (40% buffer A, 60% buffer B) 1× buffer). After an additional 60 minutes, fluorescent polarization (Ex: 550-10 nm, Em: 590-10 nm, Dich: 561 nm) was measured using Analyst GT multimode reader (Molecular Devices).

[2] = test system: M. tuberculosis H37Rv; assay: Resazurin reduction microtiter assay (REMA), growth inhibition and MIC determination; type: cell-based; details: Mycobacterium tuberculosis, 168 h, 7 days at 37° C.; for inhibition at 20 µM: at 20 uM compound, read-out: H37Rv inh % at 20 uM; for MIC: two-fold serial dilution from 100 to 0.16 μM, read-out: H37Rv MIC90

T1 sequence (P53350 53-305 limits assumed): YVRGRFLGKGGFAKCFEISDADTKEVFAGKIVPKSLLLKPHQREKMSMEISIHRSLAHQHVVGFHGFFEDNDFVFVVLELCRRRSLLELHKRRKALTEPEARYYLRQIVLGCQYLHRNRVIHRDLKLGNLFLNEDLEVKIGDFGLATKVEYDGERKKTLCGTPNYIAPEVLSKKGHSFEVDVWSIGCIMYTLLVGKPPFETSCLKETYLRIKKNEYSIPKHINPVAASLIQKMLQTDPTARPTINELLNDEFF

## Cc1noc(NS(=O)(=O)c2ccc(Nc3cc(-c4ccccc4C(F)(F)F)ncn3)cc2)c1C [Example 1, N-(3,4-Dimethyl-isoxazol-5-yl)-4-[6-(2-trifluoromethyl-phenyl)-pyrimidin-4-ylamino]-benzenesulfonamide]
[1]
  IC50: 1450 nM
  inhibition at 10 µM: 96.1%
[2]
  inhibition at 20 µM: 101%
  MIC: 2.77 µM (≈ 1.35 µg/mL)

## Cc1noc(NS(=O)(=O)c2ccc(Nc3cc(-c4ccccc4OC(F)(F)F)ncn3)cc2)c1C [Example 2, N-(3,4-Dimethyl-isoxazol-5-yl)-4-[6-(2-trifluoromethoxy-phenyl)-pyrimidin-4-ylamino]-benzenesulfonamide]
[1]
  IC50: 698 nM
  inhibition at 10 µM: 69%
[2]
  inhibition at 20 µM: 102%
  MIC: 9.71 µM (≈ 4.91 µg/mL)

## Cc1noc(NS(=O)(=O)c2ccc(Nc3cc(-c4cccc5c4OCO5)ncn3)cc2)c1C [Example 3, 4-(6-Benzo[1,3]dioxol-4-yl-pyrimidin-4-ylamino)-N-(3,4-dimethyl-isoxazol-5-yl)-benzenesulfonamide]
[1]
  inhibition at 10 µM: 48.5%
[2]
  inhibition at 20 µM: -7.2%

## Cc1noc(NS(=O)(=O)c2ccc(Nc3cc(-c4ccccc4Oc4ccccc4)ncn3)cc2)c1C [Example 4, N-(3,4-Dimethyl-isoxazol-5-yl)-4-[6-(2-phenoxy-phenyl)-pyrimidin-4-ylamino]-benzenesulfonamide]
[1]
  inhibition at 10 µM: 52.7%
[2]
  inhibition at 20 µM: 39%

## COc1ccc(C(C)C)cc1-c1cc(Nc2ccc(S(=O)(=O)Nc3onc(C)c3C)cc2)ncn1 [Example 5, N-(3,4-Dimethyl-isoxazol-5-yl)-4-[6-(5-isopropyl-2-methoxy-phenyl)-pyrimidin-4-ylamino]-benzenesulfonamide]
[1]
  inhibition at 10 µM: 43.2%
[2]
  inhibition at 20 µM: 99.2%
  MIC: 16 µM (≈ 7.9 µg/mL)

## COc1ccc(OC)c(-c2cc(Nc3ccc(S(=O)(=O)Nc4onc(C)c4C)cc3)ncn2)c1 [Example 7, 4-[6-(2,5-Dimethoxy-phenyl)-pyrimidin-4-ylamino]-N-(3,4-dimethyl-isoxazol-5-yl)-benzenesulfonamide]
[1]
  IC50: 189 nM
  inhibition at 10 µM: 59.6%
[2]
  inhibition at 20 µM: 58.2%

## CCOc1ccccc1-c1cc(Nc2ccc(S(=O)(=O)Nc3onc(C)c3C)cc2)ncn1 [Example 8, N-(3,4-Dimethyl-isoxazol-5-yl)-4-[6-(2-ethoxy-phenyl)-pyrimidin-4-ylamino]-benzenesulfonamide]
[1]
  IC50: 1250 nM
  inhibition at 10 µM: 82.4%
[2]
  inhibition at 20 µM: -48.4%

## CCCOc1ccccc1-c1cc(Nc2ccc(S(=O)(=O)Nc3onc(C)c3C)cc2)ncn1 [Example 10, N-(3,4-Dimethyl-isoxazol-5-yl)-4-[6-(2-propoxy-phenyl)-pyrimidin-4-ylamino]-benzenesulfonamide]
[1]
  IC50: 925 nM
  inhibition at 10 µM: 104%
[2]
  inhibition at 20 µM: -21.2%

## Cc1noc(NS(=O)(=O)c2ccc(Nc3cc(-c4ccc5c(c4)OCO5)ncn3)cc2)c1C [Example 11, 4-(6-Benzo[1,3]dioxol-5-yl-pyrimidin-4-ylamino)-N-(3,4-dimethyl-isoxazol-5-yl)-benzenesulfonamide]
[1]
  IC50: 888 nM
  inhibition at 10 µM: 74.4%
[2]
  inhibition at 20 µM: -21.5%

## Cc1noc(NS(=O)(=O)c2ccc(Nc3cc(-c4ccccc4OC(C)C)ncn3)cc2)c1C [Example 13, N-(3,4-Dimethyl-isoxazol-5-yl)-4-[6-(2-isopropoxy-phenyl)-pyrimidin-4-ylamino]-benzenesulfonamide]
[1]
  IC50: 1820 nM
  inhibition at 10 µM: 88.6%
[2]
  inhibition at 20 µM: -23%

## COc1ccc(F)c(F)c1-c1cc(Nc2ccc(S(=O)(=O)Nc3onc(C)c3C)cc2)ncn1 [Example 14, 4-[6-(2,3-Difluoro-6-methoxy-phenyl)-pyrimidin-4-ylamino]-N-(3,4-dimethyl-isoxazol-5-yl)-benzenesulfonamide]
[1]
  inhibition at 10 µM: 55.4%

## Cc1noc(NS(=O)(=O)c2ccc(Nc3cc(-c4ccc(F)cc4OC(C)C)ncn3)cc2)c1C [Example 17, N-(3,4-Dimethyl-isoxazol-5-yl)-4-[6-(4-fluoro-2-isopropoxy-phenyl)-pyrimidin-4-ylamino]-benzenesulfonamide]
[1]
  IC50: 179 nM
  inhibition at 10 µM: 68.8%
[2]
  inhibition at 20 µM: -1.4%

## COc1cc(F)ccc1-c1cc(Nc2ccc(S(=O)(=O)Nc3onc(C)c3C)cc2)ncn1 [Example 18, N-(3,4-Dimethyl-isoxazol-5-yl)-4-[6-(4-fluoro-2-methoxy-phenyl)-pyrimidin-4-ylamino]-benzenesulfonamide]
[1]
  IC50: 40 nM
  inhibition at 10 µM: 63.3%
[2]
  inhibition at 20 µM: -8.6%

## Cc1noc(NS(=O)(=O)c2ccc(Nc3cc(-c4ccc(F)cc4Cl)ncn3)cc2)c1C [Example 19, 4-[6-(2-Chloro-4-fluoro-phenyl)-pyrimidin-4-ylamino]-N-(3,4-dimethyl-isoxazol-5-yl)-benzenesulfonamide]
[1]
  IC50: 47 nM
  inhibition at 10 µM: 60.8%
[2]
  inhibition at 20 µM: 100%
  MIC: 19.4 µM (≈ 9.22 µg/mL)

## CCc1ccccc1-c1cc(Nc2ccc(S(=O)(=O)Nc3onc(C)c3C)cc2)ncn1 [Example 20, N-(3,4-Dimethyl-isoxazol-5-yl)-4-[6-(2-ethyl-phenyl)-pyrimidin-4-ylamino]-benzenesulfonamide]
[1]
  IC50: 960 nM
  inhibition at 10 µM: 73%
[2]
  inhibition at 20 µM: 103%
  MIC: 4.84 µM (≈ 2.18 µg/mL)

## Cc1noc(NS(=O)(=O)c2ccc(Nc3cc(-c4ccccc4COc4ccc(OC(F)(F)F)cc4)ncn3)cc2)c1C [Example 30, N-(3,4-Dimethyl-isoxazol-5-yl)-4-{6-[2-(4-trifluoromethoxy-phenoxymethyl)-phenyl]-pyrimidin-4-ylamino}-benzenesulfonamide]
[1]
  inhibition at 10 µM: 0%

## COc1ccccc1-c1cc(Nc2ccc(S(=O)(=O)Nc3onc(C)c3C)cc2)ncn1 [Example 31, N-(3,4-Dimethyl-isoxazol-5-yl)-4-[6-(2-methoxy-phenyl)-pyrimidin-4-ylamino]-benzenesulfonamide]
[1]
  IC50: 2470 nM
  inhibition at 10 µM: 79.8%

## Cc1noc(NS(=O)(=O)c2ccc(Nc3cc(-c4cccc(N)c4)ncn3)cc2)c1C [Example 44, 4-[6-(3-Amino-phenyl)-pyrimidin-4-ylamino]-N-(3,4-dimethyl-isoxazol-5-yl)-benzenesulfonamide]
[1]
  IC50: 11400 nM
  inhibition at 10 µM: 68%

## Cc1noc(NS(=O)(=O)c2ccc(Nc3cc(-c4ccc(N)cc4)ncn3)cc2)c1C [Example 45, 4-[6-(4-Amino-phenyl)-pyrimidin-4-ylamino]-N-(3,4-dimethyl-isoxazol-5-yl)-benzenesulfonamide]
[1]
  IC50: 7340 nM
  inhibition at 10 µM: 88%

## Cc1noc(NS(=O)(=O)c2ccc(Nc3cc(-c4ccc(C(N)=O)cc4)ncn3)cc2)c1C [Example 46, 4-{6-[4-(3,4-Dimethyl-isoxazol-5-ylsulfamoyl)-phenylamino]-pyrimidin-4-yl}-benzamide]
[1]
  inhibition at 10 µM: 24%

## Cc1ccc(COCc2cc(C)cc(-c3cc(Nc4ccc(S(=O)(=O)Nc5onc(C)c5C)cc4)ncn3)c2)cc1 [Example 47, N-(3,4-Dimethyl-isoxazol-5-yl)-4-{6-[3-methyl-5-(4-methyl-benzyloxymethyl)-phenyl]-pyrimidin-4-ylamino}-benzenesulfonamide]
[1]
  inhibition at 10 µM: -4%

## Cc1noc(NS(=O)(=O)c2ccc(Nc3cc(-c4ccc(N(C)C)cc4)ncn3)cc2)c1C [Example 48, 4-[6-(4-Dimethylamino-phenyl)-pyrimidin-4-ylamino]-N-(3,4-dimethyl-isoxazol-5-yl)-benzenesulfonamide]
[1]
  IC50: 14200 nM
  inhibition at 10 µM: 87%
